Here are results for 10 molecules from ChEMBL document CHEMBL1201862, “PubChem BioAssay data set” (2004).

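Method: 48-hour compound exposure of cells in 96-well plates, five concentrations, linear interpolation of endpoints. At the GI50, growth is halved.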 The source made the active and inactive calls. No stated cut-off is given here; in the data, active = GI50 up to about 1.1 µM and inactive = higher.

Test systems include ACHN; COLO 205; HCT-116; HT-29; K562; KM12; LOX IMVI; M14; MOLT-4; NCI-H522; OVCAR-3; OVCAR-5; OVCAR-8; SF-268; SF-295; SK-MEL-2; SN12C; SNB-75; U-251; UO-31.
Common to all, as to assay: DTP human tumour cell line panel, 48 h

The GI50 is the concentration that inhibits growth by half. With `COc1cccc(/C=C/C(=O)N2CC(CCl)c3c2cc(N)c2ccccc32)c1` (stereo unspecified), the GI50 with ACHN was 0.000264 µM (active); with COLO 205, 0.0146 µM (active); with HCT-116 it was 0.00109 µM (active); in the test with HT-29, < 0.01 µM (active); in the test with K562 it was < 0.01 µM (active); in the test with KM12, 0.00434 µM (active). The GI50 was 0.000548 µM (active) with LOX IMVI; 0.00957 µM (active) in the test with M14; 0.0194 µM (active) in the test with MOLT-4; 0.00045 µM (active) in the test on NCI-H522; < 0.01 µM (active) with OVCAR-3; 0.00804 µM (active) in the test with OVCAR-5. Further, the GI50 in the test with OVCAR-8 was 0.00109 µM (active); in the test on SF-268, 0.000693 µM (active); in the test with SF-295, 0.00114 µM (active); with SK-MEL-2 it was 0.00834 µM (active); in the test with SN12C, 0.00357 µM (active); in the test on SNB-75 it was 0.00237 µM (active). Further, the concentration for 50% growth inhibition (GI50) is 0.000344 µM (active) in the test with U-251 and 0.00171 µM (active) in the test on UO-31.

As to `CN(C)/N=N/c1ccc([N+](=O)[O-])cc1C(N)=O`, the GI50 in the test with COLO 205, in the test on HCT-116, in the test on HT-29, with K562, with KM12 and in the test on LOX IMVI was > 100 µM (inactive) in each case. Further, the GI50 in the test on MOLT-4 is > 79.6 µM (inactive); with NCI-H522, > 92.7 µM (inactive); in the test with OVCAR-3 it was > 100 µM (inactive); in the test on OVCAR-5, > 100 µM (inactive); in the test on OVCAR-8, > 100 µM (inactive); with SF-268, > 100 µM (inactive). Also, the GI50 is > 100 µM (inactive) in the test on SF-295; > 100 µM (inactive) in the test on SK-MEL-2; > 100 µM (inactive) with SN12C; > 100 µM (inactive) in the test on SNB-75; > 100 µM (inactive) in the test with U-251; > 82 µM (inactive) in the test with UO-31.

As to `CCN1C(=O)c2cc(OC)c(OC)cc2C(=O)C12OC(=O)c1cc3c(cc12)OCO3` (stereo unspecified), the GI50 in the test with ACHN is > 100 µM (inactive); with COLO 205, > 100 µM (inactive); in the test on HCT-116 it was 33.1 µM (inactive); in the test on HT-29, 87.3 µM (inactive); in the test with K562, > 100 µM (inactive); in the test on KM12, > 100 µM (inactive). Further, the GI50 in the test with LOX IMVI is 40.7 µM (inactive); with M14 it was 97.3 µM (inactive); in the test with MOLT-4 it was > 100 µM (inactive); in the test on NCI-H522 it was > 100 µM (inactive); in the test with OVCAR-3, 63.5 µM (inactive); with OVCAR-5, > 100 µM (inactive). Moreover, the GI50 with OVCAR-8 is 48 µM (inactive); in the test on SF-268, 69.7 µM (inactive); in the test on SF-295, 68.7 µM (inactive); with SK-MEL-2, 20.2 µM (inactive); with SN12C, 61.5 µM (inactive); in the test on SNB-75, 23 µM (inactive). The GI50 in the test on U-251 is 43 µM (inactive); in the test on UO-31 it was > 100 µM (inactive).

As for `Nc1nnc(CCC(=O)Nc2cc(Cl)ccc2Cl)n1N`, the GI50 with ACHN, with COLO 205, in the test on HCT-116, in the test on HT-29, in the test with K562 and in the test with KM12 was > 100 µM (inactive) in each case. The GI50 in the test on LOX IMVI, in the test on M14, with MOLT-4, with NCI-H522, with OVCAR-3 and with OVCAR-5 was > 100 µM (inactive) in each case. The GI50 in the test on OVCAR-8, in the test on SF-268, in the test on SF-295, in the test on SK-MEL-2, with SN12C and in the test with SNB-75 was > 100 µM (inactive) each time. Besides, the GI50 in the test on U-251 and in the test with UO-31 was > 100 µM (inactive) in each case.

Consider `CCOc1c(/N=N/c2ccccc2Cl)c(-c2ccccc2)nn1C(=S)S`, for which the GI50 in the test with ACHN is 48.1 µM (inactive); with COLO 205, 21.4 µM (inactive); in the test on HCT-116, 28 µM (inactive); in the test on HT-29, 25.2 µM (inactive); in the test with K562 it was 19 µM (inactive); in the test on KM12 it was 33 µM (inactive). Further, the GI50 in the test with LOX IMVI is 19.9 µM (inactive); in the test with M14, 47.9 µM (inactive); with MOLT-4 it was 23.9 µM (inactive); with NCI-H522, 25.2 µM (inactive); in the test with OVCAR-3, 25 µM (inactive); in the test with OVCAR-5 it was 61 µM (inactive). Further, the GI50 with OVCAR-8 was 54 µM (inactive); in the test with SF-268, > 100 µM (inactive); in the test with SF-295, 33.6 µM (inactive); with SK-MEL-2, 34.8 µM (inactive); in the test on SN12C, 9.06 µM (inactive); in the test with SNB-75, > 100 µM (inactive). Also, the GI50 with U-251 was 51.1 µM (inactive); with UO-31, 35.6 µM (inactive).

With `O=C(O)/C(=C\c1ccncc1)c1cccc2ccccc12`, the GI50 with COLO 205, in the test with HCT-116, in the test on HT-29, in the test on K562, in the test on KM12 and in the test on LOX IMVI was > 100 µM (inactive) each time. The GI50 in the test with M14, with MOLT-4, with NCI-H522, with OVCAR-3, in the test on OVCAR-5 and in the test with OVCAR-8 was > 100 µM (inactive) throughout. In addition, the GI50 was > 100 µM (inactive) with SF-268; > 100 µM (inactive) in the test on SF-295; > 100 µM (inactive) in the test with SK-MEL-2; 44.1 µM (inactive) in the test on SN12C; > 100 µM (inactive) in the test with SNB-75; > 100 µM (inactive) in the test with U-251.

Regarding `Cc1cc2oc3c(ccc(=O)n3C)c(=O)c2c(C)c1Cl`, the GI50 is 57.4 µM (inactive) in the test on ACHN; 73.5 µM (inactive) in the test on COLO 205; 34.9 µM (inactive) in the test on HCT-116; 38.3 µM (inactive) with HT-29; 41.9 µM (inactive) in the test with K562; 91.4 µM (inactive) in the test with KM12. Besides, the GI50 with LOX IMVI was 49.9 µM (inactive); in the test on M14 it was 28.5 µM (inactive); in the test with NCI-H522, 62.7 µM (inactive); with OVCAR-3, 42.3 µM (inactive); in the test with OVCAR-5, 72.9 µM (inactive); in the test with OVCAR-8, 76.2 µM (inactive). In addition, the GI50 in the test on SF-268 is 55.5 µM (inactive); with SF-295, 54.8 µM (inactive); in the test with SK-MEL-2, 40.6 µM (inactive); in the test on SN12C it was 48.6 µM (inactive); in the test with SNB-75 it was > 100 µM (inactive); in the test on U-251 it was 38.2 µM (inactive). Further, the GI50 in the test with UO-31 was 73.5 µM (inactive).

Consider `CCP(=O)(CC)C(Cl)(Cl)C(O)C(C)(C)C` (stereo unspecified), for which the GI50 in the test with ACHN, in the test with COLO 205, with HCT-116, with HT-29, with K562 and with LOX IMVI was > 100 µM (inactive) throughout. The GI50 in the test on M14, with MOLT-4, with NCI-H522, with OVCAR-3, with OVCAR-5 and in the test on OVCAR-8 was > 100 µM (inactive) in each case. For the same molecule, the GI50 in the test with SF-295, in the test on SK-MEL-2, in the test with SN12C, with SNB-75, in the test on U-251 and in the test on UO-31 was > 100 µM (inactive) throughout.

On to `CC(=O)/N=C1/N(/C=C2\C(=O)Oc3ccccc3C2=O)C(=O)/C(=C/c2ccc(NC(C)=O)cc2)N1C`, for which the GI50 in the test on ACHN, in the test with COLO 205, with HCT-116, with HT-29, with K562 and in the test on KM12 was > 100 µM (inactive) in each case. For the same molecule, the GI50 is > 100 µM (inactive) with LOX IMVI; > 100 µM (inactive) in the test on M14; > 100 µM (inactive) with MOLT-4; 47.9 µM (inactive) with NCI-H522; 76 µM (inactive) in the test on OVCAR-3; > 100 µM (inactive) in the test with OVCAR-5. In addition, the GI50 in the test on OVCAR-8 was > 100 µM (inactive); with SF-268 it was > 100 µM (inactive); in the test with SF-295, > 100 µM (inactive); in the test with SK-MEL-2 it was > 100 µM (inactive); with SN12C it was > 100 µM (inactive); in the test on SNB-75, 84.9 µM (inactive). Besides, the GI50 in the test on U-251 was > 100 µM (inactive).

For the molecule `CN(NC(=O)c1cccs1)C1=NCCCN1`, the GI50 in the test on ACHN, with COLO 205, with HCT-116, in the test with HT-29, in the test on K562 and in the test on KM12 was > 100 µM (inactive) in each case. Moreover, the GI50 in the test on LOX IMVI, with M14, with MOLT-4, in the test on NCI-H522, with OVCAR-3 and in the test with OVCAR-5 was > 100 µM (inactive) throughout. Besides, the GI50 in the test on OVCAR-8, in the test with SF-268, in the test with SF-295, with SK-MEL-2, with SNB-75 and in the test on U-251 was > 100 µM (inactive) throughout. The GI50 in the test on UO-31 is > 100 µM (inactive).
